US20100137313A1 (ASTRAZENECA AB, priority 2008, published 2010)

Molecular target: S. pneumoniae Topoisomerase IV ATPase (ParE) (Streptococcus pneumoniae serotype 4, UniProt Q59961)
Test: S. pneumoniae Topoisomerase IV ATPase inhibition
Type: biochemical
Conditions: values marked * are an average of two or more data points, read-out: % Inh (13 μM) of S. pneumoniae Topoisomerase IV ATPase
Outline: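 Malachite green/ammonium molybdate phosphate detection, A650. 1.25 nM ParE, 160 μM ATP, sheared salmon sperm DNA 5 μg/ml, 20 mM Tris pH 8.0, 8.0 mM MgCl2. Controls: 2% DMSO = 0%, 20 μM EDTA = 100% inhibition; IC50 over 10 concentrations.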

Chain of S. pneumoniae Topoisomerase IV ATPase (ParE) (Q59961 whole entry): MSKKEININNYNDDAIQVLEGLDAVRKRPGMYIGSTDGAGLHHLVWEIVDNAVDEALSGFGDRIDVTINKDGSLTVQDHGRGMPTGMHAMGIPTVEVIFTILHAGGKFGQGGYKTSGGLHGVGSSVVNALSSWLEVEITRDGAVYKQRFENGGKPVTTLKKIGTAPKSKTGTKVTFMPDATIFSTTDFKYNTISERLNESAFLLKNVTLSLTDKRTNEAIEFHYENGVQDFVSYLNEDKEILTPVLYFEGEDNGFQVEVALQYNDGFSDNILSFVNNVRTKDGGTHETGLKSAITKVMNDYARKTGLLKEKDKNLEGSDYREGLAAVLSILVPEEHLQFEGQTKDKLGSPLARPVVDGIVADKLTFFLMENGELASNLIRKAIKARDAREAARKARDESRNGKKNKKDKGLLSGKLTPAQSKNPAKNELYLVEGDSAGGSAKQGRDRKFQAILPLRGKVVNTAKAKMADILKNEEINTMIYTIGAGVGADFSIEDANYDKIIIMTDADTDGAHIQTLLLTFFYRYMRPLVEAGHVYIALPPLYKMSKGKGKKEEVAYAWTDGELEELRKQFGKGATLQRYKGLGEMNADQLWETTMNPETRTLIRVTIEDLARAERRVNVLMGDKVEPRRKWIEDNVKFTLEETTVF

Compound | inhibition at 13 µM [%]
CCOC(=O)c1cncc(-c2cnc(Nc3ccc(F)c(Cl)c3)nc2NCCN2CCS(=O)(=O)CC2)c1 [Example 104, 5-{2-(3-Chloro-4-fluoro-phenylamino)-4-[2-(1,1-dioxo-1λ^6-thiomorpholin-4-yl)-ethylamino]-pyrimidin-5-yl}-nicotinic acid ethyl ester] | 76.2
CCOC(=O)c1cncc(-c2cnc(Nc3ccc(F)c(Cl)c3)nc2NCCCN2CCS(=O)(=O)CC2)c1 [Example 105, 5-{2-(3-Chloro-4-fluoro-phenylamino)-4-[3-(1,1-dioxo-1λ^6-thiomorpholin-4-yl)-propylamino]-pyrimidin-5-yl}-nicotinic acid ethyl ester] | 79.2
CCOC(=O)c1cncc(-c2cnc(Nc3ccc(F)c(Cl)c3)nc2NCCCN2CCOCC2)c1 [Example 106, 5-[2-(3-Chloro-4-fluoro-phenylamino)-4-(3-morpholin-4-yl-propylamino)-pyrimidin-5-yl]-nicotinic acid ethyl ester] | 40.8
CCOC(=O)c1cncc(-c2cnc(Nc3ccc(F)c(Cl)c3)nc2NCC2CCCO2)c1 (stereo not drawn) [Example 108, ethyl 5-[2-[(3-chloro-4-fluorophenyl)amino]-4-(oxolan-2-ylmethylamino)pyrimidin-5-yl]pyridine-3-carboxylate] | -18.1
CCOC(=O)c1cncc(-c2cnc(Nc3ccc(F)c(Cl)c3)nc2NCCOC(C)C)c1 [Example 109, ethyl 5-[2-[(3-chloro-4-fluorophenyl)amino]-4-(2-propan-2-yloxyethylamino)pyrimidin-5-yl]pyridine-3-carboxylate] | 52.4
CCOC(=O)c1cncc(-c2cnc(Nc3ccc(F)c(Cl)c3)nc2NCc2ccco2)c1 [Example 110, ethyl 5-[2-[(3-chloro-4-fluorophenyl)amino]-4-(furan-2-ylmethylamino)pyrimidin-5-yl]pyridine-3-carboxylate] | 27.6
CCOC(=O)CNc1nc(Nc2ccc(F)c(Cl)c2)ncc1-c1cncc(C(=O)OCC)c1 [Example 111, ethyl 5-[2-[(3-chloro-4-fluorophenyl)amino]-4-[(2-ethoxy-2-oxoethyl)amino]pyrimidin-5-yl]pyridine-3-carboxylate] | -13.9
CCOC(=O)c1cncc(-c2cnc(Nc3ccc(F)c(Cl)c3)nc2NCCOc2ccccc2)c1 [Example 112] | 0.15
CCOC(=O)c1cncc(-c2cnc(Nc3ccc(F)c(Cl)c3)nc2N[C@H](C)C(=O)OC)c1 [Example 113, ethyl 5-[2-[(3-chloro-4-fluorophenyl)amino]-4-[[(2R)-1-methoxy-1-oxopropan-2-yl]amino]pyrimidin-5-yl]pyridine-3-carboxylate] | 34.3
CCOC(=O)c1cncc(-c2cnc(Nc3ccc(F)c(Cl)c3)nc2NCc2cnc(C)cn2)c1 [Example 115, ethyl 5-[2-[(3-chloro-4-fluorophenyl)amino]-4-[(5-methylpyrazin-2-yl)methylamino]pyrimidin-5-yl]pyridine-3-carboxylate] | 28.8
CCOC(=O)c1cncc(-c2cnc(Nc3ccc(F)c(Cl)c3)nc2NC(C)C)c1 [Example 116, ethyl 5-[2-[(3-chloro-4-fluorophenyl)amino]-4-(propan-2-ylamino)pyrimidin-5-yl]pyridine-3-carboxylate] | 82
CCOC(=O)c1cncc(-c2cnc(Nc3ccc(F)c(Cl)c3)nc2N2CCC(O)CC2)c1 [Example 117, ethyl 5-[2-[(3-chloro-4-fluorophenyl)amino]-4-(4-hydroxypiperidin-1-yl)pyrimidin-5-yl]pyridine-3-carboxylate] | 73.4
CCOC(=O)c1cncc(-c2cnc(Nc3ccc(F)c(Cl)c3)nc2N2CCCC(CO)C2)c1 (stereo not drawn) [Example 118, ethyl 5-[2-[(3-chloro-4-fluorophenyl)amino]-4-[3-(hydroxymethyl)piper-idin-1-yl]pyrimidin-5-yl]pyridine-3-carboxylate] | 80.6
CCOC(=O)c1cncc(-c2cnc(Nc3ccc(F)c(Cl)c3)nc2N2CCC(N3CCOCC3)CC2)c1 [Example 119, ethyl 5-[2-[(3-chloro-4-fluorophenyl)amino]-4-(4-morpholin-4-ylpiperidin-1-yl)pyrimidin-5-yl]pyridine-3-carboxylate] | 32
CCOC(=O)c1cncc(-c2cnc(Nc3ccc(F)c(Cl)c3)nc2N2CCC(C(=O)NC)CC2)c1 [Example 120, ethyl 5-[2-[(3-chloro-4-fluorophenyl)amino]-4-[4-(methylcarbamoyl)piper-idin-1-yl]pyrimidin-5-yl]pyridine-3-carboxylate] | 73.9
CCOC(=O)c1cncc(-c2cnc(Nc3ccc(F)c(Cl)c3)nc2N2CCC(F)CC2)c1 [Example 121, ethyl 5-[2-[(3-chloro-4-fluorophenyl)amino]-4-(4-fluoropiperidin-1-yl)pyrimidin-5-yl]pyridine-3-carboxylate] | 49.6
CCOC(=O)c1cncc(-c2cnc(Nc3ccc(F)c(Cl)c3)nc2N2CCC(OC)CC2)c1 [Example 122, ethyl 5-[2-[3-chloro-4-fluorophenyl)amino]-4-(4-methoxypiperidin-1-yl)pyrimidin-5-yl]pyridine-3-carboxylate] | 57.9

Compound | inhibition at 13 µM [%]
CCOC(=O)c1cncc(-c2cnc(Nc3ccc(F)c(Cl)c3)nc2N2CCC(O)C2)c1 (stereo not drawn) [Example 123, ethyl 5-[2-[(3-chloro-4-fluorophenyl)amino]-4-(3-hydroxypyrrolidin-1-yl)pyrimidin-5-yl]pyridine-3-carboxylate] | 66.4
CCOC(=O)c1cncc(-c2cnc(Nc3ccc(F)c(Cl)c3)nc2N2CCCC2C)c1 (stereo not drawn) [Example 124, ethyl 5-[2-[(3-chloro-4-fluorophenyl)amino]-4-(2-methylpyrrolidin-1-yl)pyrimidin-5-yl]pyridine-3-carboxylate] | 31.3
CCOC(=O)c1cncc(-c2cnc(Nc3ccc(F)c(Cl)c3)nc2N2C(C)CCC2C)c1 (stereo not drawn) [Example 125, ethyl 5-[2-[(3-chloro-4-fluorophenyl)amino]-4-(2,5-dimethylpyrrolidin-1-yl)pyrimidin-5-yl]pyridine-3-carboxylate] | 17.5
CCOC(=O)c1cncc(-c2cnc(Nc3ccc(F)c(Cl)c3)nc2N2CCC2)c1 [Example 126, ethyl 5-[4-(azetidin-1-yl)-2-[(3-chloro-4-fluorophenyl)amino]pyrimidin-5-yl]pyridine-3-carboxylate] | 35.7
CCOC(=O)c1cncc(-c2cnc(Nc3ccc(F)c(Cl)c3)nc2N2CCCCCC2)c1 [Example 127, ethyl 5-[4-(azepan-1-yl)-2-[(3-chloro-4-fluorophenyl)amino]pyrimidin-5-yl]pyridine-3-carboxylate] | 26.5
CCOC(=O)c1cncc(-c2cnc(Nc3ccc(F)c(Cl)c3)nc2N[C@H]2CC[C@H](O)CC2)c1 [Example 128, ethyl 5-[2-[(3-chloro-4-fluorophenyl)amino]-4-[(trans-4-hydroxycyclohexyl)amino]pyrimidin-5-yl]pyridine-3-carboxylate] | -16.2
CCOC(=O)c1cncc(-c2cnc(Nc3ccc(F)c(Cl)c3)nc2N2CCC(NC(C)=O)CC2)c1 [Example 129, ethyl 5-[4-(4-acetamidopiperidin-1-yl)-2-[(3-chloro-4-fluorophenyl)amino]pyrimidin-5-yl]pyridine-3-carboxylate] | 74.9
CCOC(=O)c1cncc(-c2cnc(Nc3ccc(F)c(Cl)c3)nc2N2CC(C)OC(C)C2)c1 (stereo not drawn) [Example 139, ethyl 5-(2-(3-chloro-4-fluorophenylamino)-4-(2,6-dimethylmorpholino)pyrimidin-5-yl)nicotinate] | 80.1
CCOC(=O)c1cncc(-c2cnc(Nc3ccc(F)c(Cl)c3)nc2NCCCc2nc3ccccc3[nH]2)c1 [Example 140, ethyl 5-(4-(3-(1H-benzo[d]imidazol-2-yl)propylamino)-2-(3-chloro-4-fluorophenylamino)pyrimidin-5-yl)nicotinate] | 83.5
CCOC(=O)c1cncc(-c2cnc(Nc3ccc(F)c(Cl)c3)nc2NCCCNC(=O)c2cnc(C)cn2)c1 [Example 141, ethyl 5-(2-(3-chloro-4-fluorophenylamino)-4-(3-(5-methylpyrazine-2-carboxamido)propyl-amino)pyrimidin-5-yl)nicotinate] | 63.3
CCOC(=O)c1cncc(-c2cnc(Nc3ccc(F)c(Cl)c3)nc2N2CCN(C(C)=O)CC2)c1 [Example 142, ethyl 5-(4-(4-acetylpiperazin-1-yl)-2-(3-chloro-4-fluorophenylamino)pyrimidin-5-yl)nicotinate] | 86.2
CCOC(=O)c1cncc(-c2cnc(Nc3ccc(F)c(Cl)c3)nc2NCCCOC)c1 [Example 143, ethyl 5-(2-(3-chloro-4-fluorophenylamino)-4-(3-methoxypropylamino)pyrimidin-5-yl)nicotinate] | 88.6
CCOC(=O)c1cncc(-c2cnc(Nc3ccc(F)c(Cl)c3)nc2N2CCOCC2)c1 [Example 144, ethyl 5-(2-(3-chloro-4-fluorophenylamino)-4-morpholinopyrimidin-5-yl)nicotinate] | 76.4
CCOC(=O)c1cncc(-c2cnc(Nc3ccc(F)c(Cl)c3)nc2NCc2cncn2C)c1 [Example 145, ethyl 5-(2-(3-chloro-4-fluorophenylamino)-4-((1-methyl-1H-imidazol-5-yl)methylamino)pyrimidin-5-yl) nicotinate] | 77.4
CCOC(=O)c1cncc(-c2cnc(Nc3ccc(F)c(Cl)c3)nc2N[C@@H]2CCOC2)c1 [Example 146, (R)-ethyl 5-(2-(3-chloro-4-fluorophenylamino)-4-(tetrahydrofuran-3-ylamino)pyrimidin-5-yl)nicotinate] | 79.7
CCOC(=O)c1cncc(-c2cnc(Nc3ccc(F)c(Cl)c3)nc2N2CCCC2)c1 [Example 147, ethyl 5-(2-(3-chloro-4-fluorophenylamino)-4-(pyrrolidin-1-yl)pyrimidin-5-yl)nicotinate] | 65.4
